Source: ChEMBL document CHEMBL3102697, “Controlled-deactivation cannabinergic ligands” (J Med Chem, 2013)
Activity calls are given as the source filed them. The rule behind the calls is not given here.

How the values were obtained:
Rattus norvegicus [1] = assay: Induction of hypothermia in Sprague-Dawley rat at 3 mg/kg, sc up to 300 mins; assay type: functional, organism-based; parameters: dose 3 mg/kg
Rattus norvegicus [2] = assay: Induction of hypothermia in Sprague-Dawley rat at 3 mg/kg, sc after 90 to 120 mins; assay type: functional, organism-based; parameters: dose 3 mg/kg
Rattus norvegicus [3] = assay: Induction of hypothermia in Sprague-Dawley rat at 1 to 3 mg/kg, sc measured for 6 hrs; assay type: functional; settings: dose mg/kg 1-3; route subcutaneous
Rattus norvegicus [4] = assay: Induction of hypothermia in sc dosed Sprague-Dawley rat measured for 6 hrs; assay type: functional, organism-based
[5] = biological target: Cannabinoid receptor 1 (Rattus norvegicus) (UniProt P20272); assay: Agonist activity at rat CB1 receptor expressed in HEK293 cells assessed as inhibition of forskolin-stimulated cAMP accumulation at 500 nM after 30 mins relative to CP-55,940; assay type: functional, cell-based
Chain of Cannabinoid receptor 1 (Rattus norvegicus) (P20272 whole entry): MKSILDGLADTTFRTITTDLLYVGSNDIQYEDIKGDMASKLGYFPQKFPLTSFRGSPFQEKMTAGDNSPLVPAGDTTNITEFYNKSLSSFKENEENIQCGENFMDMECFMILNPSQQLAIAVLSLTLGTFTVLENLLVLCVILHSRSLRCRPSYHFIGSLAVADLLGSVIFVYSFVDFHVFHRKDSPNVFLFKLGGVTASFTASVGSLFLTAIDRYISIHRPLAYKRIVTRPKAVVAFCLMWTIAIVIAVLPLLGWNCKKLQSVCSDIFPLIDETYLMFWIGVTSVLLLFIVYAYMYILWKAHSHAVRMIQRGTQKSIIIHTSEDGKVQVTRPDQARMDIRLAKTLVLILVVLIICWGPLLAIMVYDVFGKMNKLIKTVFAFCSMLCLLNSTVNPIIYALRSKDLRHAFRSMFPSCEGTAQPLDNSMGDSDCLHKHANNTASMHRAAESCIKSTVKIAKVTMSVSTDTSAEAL

Cannabinoid receptor 1 [6] = biological target: T1, Cannabinoid receptor 1 (Rattus norvegicus, UniProt P20272); assay: Agonist activity at rat CB1 receptor expressed in HEK293 cells assessed as inhibition of forskolin-stimulated cAMP accumulation after 30 mins; assay type: functional, cell-based
T1 sequence (P20272 whole entry): as above

Plasma [7] = assay: Half life in mouse plasma at 200 uM by HPLC analysis; assay type: ADME, cell-free
Plasma [8] = assay: Half life in rat plasma at 200 uM by HPLC analysis; assay type: ADME, cell-free
Cannabinoid receptor 2 [9] = biological target: Cannabinoid receptor 2 (Homo sapiens, UniProt P34972); assay: Displacement of [3H]CP-55,940 from human CB2 receptor expressed in HEK293 cell membranes by scintillation counting analysis
Chain of Cannabinoid receptor 2 (Homo sapiens, UniProt P34972) (P34972 whole entry): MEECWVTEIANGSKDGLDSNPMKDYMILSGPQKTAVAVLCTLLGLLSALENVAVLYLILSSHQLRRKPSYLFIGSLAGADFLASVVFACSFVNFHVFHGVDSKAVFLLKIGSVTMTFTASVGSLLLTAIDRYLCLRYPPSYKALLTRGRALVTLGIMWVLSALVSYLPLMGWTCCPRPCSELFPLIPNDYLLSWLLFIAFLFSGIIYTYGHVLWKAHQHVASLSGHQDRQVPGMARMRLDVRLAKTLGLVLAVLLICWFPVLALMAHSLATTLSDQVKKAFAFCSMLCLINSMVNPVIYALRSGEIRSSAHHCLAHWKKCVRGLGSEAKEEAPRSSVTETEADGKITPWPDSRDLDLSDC

Cannabinoid receptor 2 [10] = biological target: Cannabinoid receptor 2 (Mus musculus, UniProt P47936); assay: Displacement of [3H]CP-55,940 from mouse CB2 receptor expressed in HEK293 cell membranes by scintillation counting analysis
Chain of Cannabinoid receptor 2 (Mus musculus, UniProt P47936) (P47936 whole entry): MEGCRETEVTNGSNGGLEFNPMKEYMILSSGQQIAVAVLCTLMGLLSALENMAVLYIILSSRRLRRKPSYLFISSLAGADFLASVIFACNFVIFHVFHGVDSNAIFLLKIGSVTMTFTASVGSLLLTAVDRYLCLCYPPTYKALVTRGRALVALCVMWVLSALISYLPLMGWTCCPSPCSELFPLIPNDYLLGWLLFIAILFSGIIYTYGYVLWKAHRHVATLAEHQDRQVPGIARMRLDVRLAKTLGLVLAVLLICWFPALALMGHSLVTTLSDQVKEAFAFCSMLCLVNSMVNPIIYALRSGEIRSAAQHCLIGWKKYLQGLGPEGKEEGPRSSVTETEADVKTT

Cannabinoid receptor 1 [11] = biological target: T1, Cannabinoid receptor 1; assay: Displacement of [3H]CP-55,940 from CB1 receptor in rat brain by scintillation counting analysis; assay type: tissue-based
Rattus norvegicus [12] = assay: Induction of hypothermia in Sprague-Dawley rat at 3 mg/kg, sc after 6 hrs; assay type: functional, organism-based; parameters: dose 3 mg/kg
Rattus norvegicus [13] = assay: Induction of hypothermia in Sprague-Dawley rat at 0.1 to 3 mg/kg, sc measured for 6 hrs; assay type: functional, organism-based
[14] = biological target: Cannabinoid receptor 1 (Rattus norvegicus) (UniProt P20272); assay: Agonist activity at rat CB1 receptor expressed in HEK293 cells assessed as inhibition of forskolin-stimulated cAMP accumulation up to 5 uM after 30 mins; assay type: functional, cell-based
Mus musculus = assay: Analgesic activity in CD-1 mouse assessed as tail-flick withdrawal latency at 0.3 to 1 mg/kg, ip; assay type: functional, organism-based
Rattus norvegicus [15] = assay: Induction of hypothermia in Sprague-Dawley rat at 0.3 mg/kg, sc measured at 12 hrs; assay type: functional, organism-based; parameters: dose 0.3 mg/kg
Rattus norvegicus [16] = assay: Induction of hypothermia in Sprague-Dawley rat at 0.3 mg/kg, sc after 4 hrs; assay type: functional, organism-based; parameters: dose 0.3 mg/kg
Rattus norvegicus [17] = assay: Induction of hypothermia in Sprague-Dawley rat at 1 mg/kg, sc up to 300 mins; assay type: functional, organism-based; parameters: dose 1 mg/kg
Rattus norvegicus [18] = assay: Induction of hypothermia in Sprague-Dawley rat at 1 mg/kg, sc after 90 to 120 mins; assay type: functional, organism-based; parameters: dose 1 mg/kg
Rattus norvegicus [19] = assay: Induction of hypothermia in Sprague-Dawley rat at 0.3 mg/kg, sc up to 6 hrs; assay type: functional, organism-based; parameters: dose 0.3 mg/kg
Rattus norvegicus [20] = assay: Induction of hypothermia in Sprague-Dawley rat at 0.3 mg/kg, sc after 2 hrs; assay type: functional; settings: route subcutaneous
Rattus norvegicus [21] = assay: Induction of hypothermia in Sprague-Dawley rat at 3 mg/kg, sc after 60 mins; assay type: functional, organism-based; parameters: dose 3 mg/kg

Structure (SMILES) | Activity (Rattus norvegicus [4]) | t1/2 (Plasma [7]) [min] | t1/2 (Plasma [8]) [min] | Ki (Cannabinoid receptor 2 [9]) [nM] | Ki (Cannabinoid receptor 2 [10]) [nM] | Ki (Cannabinoid receptor 1 [11]) [nM] | other results
CCCCOC(=O)[C@@H](C)c1cc(O)c2c(c1)OC(C)(C)[C@@H]1CC=C(C)C[C@@H]21 | Dose-dependent effect | 4 | 4.3 | 6.3 | 6.2 | 0.6 | Activity (Rattus norvegicus [1]): inactive; Activity (Rattus norvegicus [2]): Active; T (Rattus norvegicus [3]): 3.6 °C; Emax [5]: 63%; EC50 (Cannabinoid receptor 1 [6]): 4.2 nM
CCCCOC(=O)Cc1cc(O)c2c(c1)OC(C)(C)[C@@H]1CC=C(C)C[C@@H]21 |  | 0.7 | < 0.5 | 51.5 | 40.4 | 27.1 | Activity (Rattus norvegicus [12]): inactive; Activity (Rattus norvegicus [13]): inactive; inhibition [14]: inactive
CC1=CC[C@@H]2[C@@H](C1)c1c(O)cc(CC(=O)O)cc1OC2(C)C | inactive |  |  |  | > 10000 | > 10000 | 
CC1=CC[C@@H]2[C@@H](C1)c1c(O)cc([C@@H](C)C(=O)O)cc1OC2(C)C | inactive |  |  |  | > 10000 | > 10000 | 
CC1=CC[C@@H]2[C@@H](C1)c1c(O)cc(C3(C(=O)O)CCC3)cc1OC2(C)C | inactive |  |  |  | > 10000 | > 10000 | 
CCCCCCC(C)(C)c1cc(O)c2c(c1)OC(C)(C)[C@@H]1CC=C(C)C[C@@H]21 |  |  |  |  |  |  | Activity (Mus musculus): Active; Activity (Rattus norvegicus [15]): Active; Activity (Rattus norvegicus [16]): Active; Activity (Rattus norvegicus [13]): Active
CCCCOC(=O)C1(c2cc(O)c3c(c2)OC(C)(C)[C@@H]2CC=C(C)C[C@@H]32)CCC1 | Dose-dependent effect | 36.3 | 263 | 3 | 3 |  | Activity (Rattus norvegicus [17]): inactive; T (Rattus norvegicus [3]): 3.6 °C; Emax [5]: 90%; EC50 (Cannabinoid receptor 1 [6]): 0.4 nM; Activity (Rattus norvegicus [18]): Active
CCCCOC(=O)[C@H](C)c1cc(O)c2c(c1)OC(C)(C)[C@@H]1CC=C(C)C[C@@H]21 |  | 5.9 | 10.5 | 3.7 | 4.5 | 1.6 | Activity (Rattus norvegicus [12]): inactive; Activity (Rattus norvegicus [13]): inactive; inhibition [14]: inactive
CCCCOC(=O)C(C)(C)c1cc(O)c2c(c1)OC(C)(C)[C@@H]1CC=C(C)C[C@@H]21 | Dose-dependent effect | 12.4 | 120 | 1.7 | 2.1 | 0.3 | Activity (Mus musculus): Active; Activity (Rattus norvegicus [19]): Active; T (Rattus norvegicus [20]): 2 °C; Activity (Rattus norvegicus [1]): inactive; Activity (Rattus norvegicus [21]): Active; T (Rattus norvegicus [3]): 3.6 °C; Emax [5]: 92%; EC50 (Cannabinoid receptor 1 [6]): 0.5 nM
CC1=CC[C@@H]2[C@@H](C1)c1c(O)cc([C@H](C)C(=O)O)cc1OC2(C)C | inactive |  |  |  | > 10000 | > 10000 | 
CC1=CC[C@@H]2[C@@H](C1)c1c(O)cc(C(C)(C)C(=O)O)cc1OC2(C)C | inactive |  |  |  | > 10000 | > 10000 | 
